Measured values reported in the supplement of paper PMC11061612.

Tests used:
Test in all cases: Bliss excess, mean over the matrix (fraction); higher = more synergy
[1] = tested on: DU-4475 (Breast Carcinoma)
Method in brief: (§1)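 Cell lines in DMEM/F12 or RPMI with 10% FBS were plated in 1536-well plates, held 24 hours at 37°C, 5% CO2, then given two-drug dose matrices for 72 hours (DMSO typically 0.2%). Viability was read by CellTiter-Glo 2.0 luminescence and scaled as inhibition from 0 (vehicle wells) to 1 (blank wells). Combination Emax is the second-highest inhibition in the matrix; Bliss excess is observed combination effect minus expected EA + EB − EA·EB, EA and EB being single-agent effects.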

[2] = tested on: CA46 (Burkitt's Lymphoma)
Method in brief: as §1

[3] = tested on: MDA-MB-436 (Breast Carcinoma)
Method in brief: as §1

[4] = tested on: AU565 (Breast Carcinoma)
Method in brief: as §1

[5] = tested on: CGTH-W-1 (Thyroid Gland Carcinoma)
Method in brief: as §1

[6] = tested on: MHH-ES-1 (Ewing's Sarcoma)
Method in brief: as §1

[7] = tested on: A101D (Melanoma)
Method in brief: as §1

[8] = tested on: G-402 (Other Solid Carcinomas)
Method in brief: as §1

[9] = tested on: DMS-53 (Small Cell Lung Carcinoma)
Method in brief: as §1

[10] = tested on: EB2 (Burkitt's Lymphoma)
Method in brief: as §1

[11] = tested on: CESS (Acute Myeloid Leukemia)
Method in brief: as §1

[12] = tested on: PEO1 (Ovarian Carcinoma)
Method in brief: as §1

[13] = tested on: A2780 (Ovarian Carcinoma)
Method in brief: as §1

[14] = tested on: WM1552C (Melanoma)
Method in brief: as §1

[15] = tested on: EW-7 (Ewing's Sarcoma)
Method in brief: as §1

[16] = tested on: HCC1428 (Breast Carcinoma)
Method in brief: as §1

[17] = tested on: OACp4C (Esophageal Adenocarcinoma)
Method in brief: as §1

[18] = tested on: NCI-H1651 (Lung Adenocarcinoma)
Method in brief: as §1

[19] = tested on: ESO26 (Esophageal Adenocarcinoma)
Method in brief: as §1

[20] = tested on: CAL-27 (Oral Cavity Carcinoma)
Method in brief: as §1

Row | Structure (SMILES) | Bliss excess [1] | Bliss excess [2] | Bliss excess [3] | Bliss excess [4] | Bliss excess [5] | Bliss excess [6] | Bliss excess [7] | Bliss excess [8] | Bliss excess [9] | Bliss excess [10] | Bliss excess [11] | Bliss excess [12] | Bliss excess [13] | Bliss excess [14] | Bliss excess [15] | Bliss excess [16] | Bliss excess [17] | Bliss excess [18] | Bliss excess [19] | Bliss excess [20]
1 | C=CCn1c(=O)c2cnc(Nc3ccc(N4CCN(C)CC4)cc3)nc2n1-c1cccc(C(C)(C)O)n1 [AZD1775] + C[C@@H]1COCCN1C2=NC(=NC(=C2)C3(CC3)[S@](=N)(=O)C)C4=C5C=CNC5=NC=C4 [AZD6738] (first compound max 1 µM, partner max 10 µM) | 0.0549 | 0.0061 | 0.0143 | -0.0083 | 0.0368 | -0.0135 | -0.0089 | -0.0458 | 0.0115 | 0.0589 | 0.0388 | -0.0234 | 0.0221 | 0.0011 | -0.0435 | 0.0035 | -0.028 | -0.0105 | 0.0102 | 0.0428
2 | NC1(C(=O)N[C@@H](CCO)c2ccc(Cl)cc2)CCN(c2ncnc3[nH]ccc23)CC1 [Capivasertib] + CC(=O)c1c(C)c2cnc(Nc3ccc(N4CCNCC4)cn3)nc2n(C2CCCC2)c1=O [Palbociclib] (first compound max 10 µM, 7x7, partner max 10 µM) | -0.0335 | 0.0033 | -0.0267 | 0.0521 | 0.0111 | 0.0257 | 0.0157 | -0.0357 | 0.0477 | -0.0213 | -0.0306 | -0.0509 | -0.0266 | 0.0025 | 0.01 | -0.0201 | -0.0239 | -0.0393 | -0.0512 | -0.0242
3 | CCN(CCO)CCCOc1ccc2c(Nc3cc(CC(=O)Nc4cccc(F)c4)[nH]n3)ncnc2c1 [AZD2811] + C[C@@H]1COCCN1C2=NC(=NC(=C2)C3(CC3)[S@](=N)(=O)C)C4=C5C=CNC5=NC=C4 [AZD6738] (first compound max 1 µM, 7x7, partner max 10 µM) | 0.0045 | -0.0698 | -0.0469 | -0.002 | -0.0461 | -0.0145 | -0.0414 | -0.0703 | -0.0357 | 0.0038 | -0.0259 | -0.0718 | -0.0619 | -0.0468 | -0.0469 | -0.0369 | 0 | -0.0555 | -0.0427 | -0.0452
4 | COc1cccc(OCCCN)c1-c1cc(Nc2cnc(C#N)cn2)n[nH]1 [Prexasertib] + CN(C)CCCOc1ccc(-c2ccc3ncc4c(c3c2)n(C2CCOCC2)c(=O)n4C)cn1 [AZD0156] (first compound max 1 µM, 7x7, partner max 1 µM) | -0.0171 | 0.0713 | -0.0428 | -0.073 | -0.0614 | 0.0004 | 0.0419 | 0.0003 | -0.0142 | -0.0088 | 0.0062 | -0.0168 | 0.0127 | -0.0036 | 0.025 | -0.0703 | -0.0162 | -0.107 | 0.0207 | -0.0014
5 | CC1(C)CCC(CN2CCN(c3ccc(C(=O)NS(=O)(=O)c4ccc(NCC5CCOCC5)c([N+](=O)[O-])c4)c(Oc4cnc5[nH]ccc5c4)c3)CC2)=C(c2ccc(Cl)cc2)C1 [Venetoclax] + COc1cc(Nc2ncc3c(n2)-c2ccc(Cl)cc2C(c2c(F)cccc2OC)=NC3)ccc1C(=O)O [Alisertib] (first compound max 1 µM, 7x7, partner max 10 µM) | 0.0933 | -0.017 | -0.0299 | 0.106 | -0.0198 | 0.0931 | 0.077 | -0.0116 | 0.192 | 0.13 | 0.0268 | 0.0007 | -0.0602 | -0.0613 | 0.0262 | 0.0554 | 0.0112 | 0.0211 | -0.003 | -0.0088
6 | COc1cccc(OCCCN)c1-c1cc(Nc2cnc(C#N)cn2)n[nH]1 [Prexasertib] + C=CCn1c(=O)c2cnc(Nc3ccc(N4CCN(C)CC4)cc3)nc2n1-c1cccc(C(C)(C)O)n1 [AZD1775] (first compound max 1 µM, partner max 1 µM) | 0.114 | 0.0924 | 0.165 | 0.0991 | 0.0632 | 0.0402 | 0.0932 | 0.0504 | 0.0883 | 0.0249 | -0.0059 | 0.0825 | 0.155 | 0.0412 | 0.0157 | 0.138 | -0.0189 | 0.0428 | 0.0278 | 0.0945
7 | COc1nnc2ccc(N3CCC(c4ccc(OCCN5CCN(C)C(=O)[C@H]5C)cc4)CC3)nn12 [AZD5153] + CC1(C)CCC(CN2CCN(c3ccc(C(=O)NS(=O)(=O)c4ccc(NCC5CCOCC5)c([N+](=O)[O-])c4)c(Oc4cnc5[nH]ccc5c4)c3)CC2)=C(c2ccc(Cl)cc2)C1 [Venetoclax] (first compound max 1 µM, 7x7, partner max 1 µM) | 0.0181 | -0.052 | -0.0572 | 0.0002 | -0.0407 | -0.046 | -0.0731 | -0.0478 | -0.0406 | -0.0677 | -0.0713 | -0.0771 | -0.0689 | -0.0691 | -0.0122 | -0.0592 | -0.0242 | -0.0338 | -0.0776 | -0.0394
8 | COc1cccc(OCCCN)c1-c1cc(Nc2cnc(C#N)cn2)n[nH]1 [Prexasertib] + CCc1c2c(nc3ccc(O)cc13)-c1cc3c(c(=O)n1C2)COC(=O)[C@]3(O)CC [SN-38] (first compound max 1 µM, 7x7, partner max 0.3 µM) | 0.0035 | 0.0035 | -0.003 | -0.0213 | -0.0566 | 0.0134 | -0.0308 | -0.0336 | -0.0377 | -0.0439 | -0.0364 | -0.0015 | -0.0528 | -0.0306 | -0.0713 | 0.045 | 0.0186 | -0.0551 | 0.0483 | 0.0083
9 | CCN(CCO)CCCOc1ccc2c(Nc3cc(CC(=O)Nc4cccc(F)c4)[nH]n3)ncnc2c1 [AZD2811] + C=CCn1c(=O)c2cnc(Nc3ccc(N4CCN(C)CC4)cc3)nc2n1-c1cccc(C(C)(C)O)n1 [AZD1775] (first compound max 1 µM, partner max 1 µM) | 0.0523 | 0.0165 | -0.0158 | 0.0437 | -0.0014 | 0.0089 | -0.0166 | -0.0106 | -0.0378 | -0.0165 | 0.0173 | -0.0025 | 0.088 | 0.0035 | 0.0623 | -0.0478 | -0.0436 | -0.0268 | -0.0247 | 0.0013
10 | Cn1cnc2c(F)c(Nc3ccc(Br)cc3Cl)c(C(=O)NOCCO)cc21 [Selumetinib] + C[C@@H]1COCCN1C2=NC(=NC(=C2)C3(CC3)[S@](=N)(=O)C)C4=C5C=CNC5=NC=C4 [AZD6738] (first compound max 10 µM, 7x7, partner max 10 µM) | -0.0103 | -0.0159 | -0.0064 | -0.0014 | -0.0232 | -0.046 | -0.0548 | -0.0353 | -0.0272 | -0.071 | -0.0205 | -0.0357 | 0.0429 | -0.0591 | 0.0112 | -0.0527 | -0.0052 | -0.0638 | -0.0189 | 0.0939
11 | Cn1cnc2c(F)c(Nc3ccc(Br)cc3Cl)c(C(=O)NOCCO)cc21 [Selumetinib] + CCN(CCO)CCCOc1ccc2c(Nc3cc(CC(=O)Nc4cccc(F)c4)[nH]n3)ncnc2c1 [AZD2811] (first compound max 10 µM, 7x7, partner max 1 µM) | 0.0351 | -0.0093 | -0.006 | -0.0167 | -0.0329 | -0.0268 | -0.0718 | -0.0137 | -0.0629 | -0.0564 | 0.0943 | -0.0252 | 0.0251 | -0.0694 | -0.0023 | 0.0269 | 0.0193 | -0.0283 | -0.0374 | -0.0921
12 | NC1(C(=O)N[C@@H](CCO)c2ccc(Cl)cc2)CCN(c2ncnc3[nH]ccc23)CC1 [Capivasertib] + C[C@@H]1COCCN1C2=NC(=NC(=C2)C3(CC3)[S@](=N)(=O)C)C4=C5C=CNC5=NC=C4 [AZD6738] (first compound max 10 µM, 7x7, partner max 10 µM) | 0.0226 | 0.0324 | -0.0473 | -0.0126 | -0.0508 | -0.0259 | -0.107 | -0.017 | -0.0279 | -0.0714 | 0.0044 | -0.0225 | -0.0336 | -0.062 | 0.0021 | -0.0066 | -0.0402 | -0.0528 | -0.0364 | -0.0792
13 | CC1(C)CCC(CN2CCN(c3ccc(C(=O)NS(=O)(=O)c4ccc(NCC5CCOCC5)c([N+](=O)[O-])c4)c(Oc4cnc5[nH]ccc5c4)c3)CC2)=C(c2ccc(Cl)cc2)C1 [Venetoclax] + C[C@@H](Nc1cc(F)cc(F)c1)c1cc(C(=O)N(C)C)cc2c(=O)cc(N3CCOCC3)oc12 [AZD8186] (first compound max 1 µM, 7x7, partner max 3 µM) | -0.0202 | 0.0323 | -0.0092 | -0.0033 | -0.0244 | -0.0248 | 0.0305 | -0.0612 | -0.0141 | 0.0231 | -0.0244 | -0.0427 | -0.0138 | -0.0157 | 0.0048 | -0.0147 | 0.0104 | -0.0212 | -0.0277 | -0.0361
